Assay results: US20080039422A1, “Vitamin B12-Containing Compositions and Methods of Use” (Transition Therapeutics Inc., priority 2004, published 2008)

What was measured:
[1] = Methylcobalamin-containing solutions; assay type: physicochemical
[2] = Methylcobalamin-containing solutions; assay type: physicochemical; remark: listed apart in the source
Method: A variety of solutions containing methylcobalamin (Me-Cbl) were tested. In one series of experiments, solutions containing ethanol, propylene glycol, or both ethanol and propylene glycol were challenged with 20 mg/ml Me-Cbl. In another series of experiments, the same solutions were challenged with 50 mg/ml Me-Cbl. The conditions were the same as those described for CN-Cbl. In both series, the excipients included: (a) 15% ethanol; (b) 20% ethanol; (c) 20% propylene glycol; (d) 40% propylene glycol; (e) 15% ethanol and 20% propylene glycol; and (f) 20% ethanol and 40% propylene glycol. Following suitable dilution, the absorbance at A340 was measured on Day 0, Day 1, and Day 2 (Table 7).

Conc of Me-Cbl ([1]; challenge 20 mg/mL, ethanol 0%, PG 0%, Day 0): 17180 µg/mL
Conc of Me-Cbl ([1]; challenge 20 mg/mL, ethanol 0%, PG 0%, Day 0 reading): 12780 µM
Conc of Me-Cbl ([1]; challenge 20 mg/mL, ethanol 0%, PG 0%, Day 1): 14030 µg/mL
Conc of Me-Cbl ([1]; challenge 20 mg/mL, ethanol 0%, PG 0%, Day 3): 13180 µg/mL
Conc of Me-Cbl ([1]; challenge 20 mg/mL, ethanol 0%, PG 20%, Day 3): 23370 µg/mL
Conc of Me-Cbl ([1]; challenge 20 mg/mL, ethanol 0%, PG 40%, Day 0): 23940 µg/mL
Conc of Me-Cbl ([1]; challenge 20 mg/mL, ethanol 0%, PG 40%, Day 1): 24340 µg/mL
Conc of Me-Cbl ([1]; challenge 20 mg/mL, ethanol 0%, PG 40%, Day 3): 24500 µg/mL
Conc of Me-Cbl ([1]; challenge 20 mg/mL, ethanol 15%, PG 0%, Day 0): 22800 µg/mL
Conc of Me-Cbl ([1]; challenge 20 mg/mL, ethanol 15%, PG 0%, Day 0 reading): 16960 µM
Conc of Me-Cbl ([1]; challenge 20 mg/mL, ethanol 15%, PG 0%, Day 1): 12530 µg/mL
Conc of Me-Cbl ([1]; challenge 20 mg/mL, ethanol 15%, PG 0%, Day 3): 11120 µg/mL
Conc of Me-Cbl ([1]; challenge 20 mg/mL, ethanol 15%, PG 20%, Day 0): 22720 µg/mL
Conc of Me-Cbl ([1]; challenge 20 mg/mL, ethanol 15%, PG 20%, Day 0 reading): 16900 µM
Conc of Me-Cbl ([1]; challenge 20 mg/mL, ethanol 15%, PG 20%, Day 1): 23450 µg/mL
Conc of Me-Cbl ([1]; challenge 20 mg/mL, ethanol 15%, PG 20%, Day 3): 21910 µg/mL
Conc of Me-Cbl ([1]; challenge 20 mg/mL, ethanol 20%, PG 0%, Day 0): 23130 µg/mL
Conc of Me-Cbl ([1]; challenge 20 mg/mL, ethanol 20%, PG 0%, Day 0 reading): 17200 µM
Conc of Me-Cbl ([1]; challenge 20 mg/mL, ethanol 20%, PG 0%, Day 1): 9180 µg/mL
Conc of Me-Cbl ([1]; challenge 20 mg/mL, ethanol 20%, PG 0%, Day 3): 9180 µg/mL
Conc of Me-Cbl ([1]; challenge 20 mg/mL, ethanol 20%, PG 40%, Day 0 reading): 16960 µM
Conc of Me-Cbl ([1]; challenge 20 mg/mL, ethanol 20%, PG 40%, Day 1): 23860 µg/mL
Conc of Me-Cbl ([1]; challenge 20 mg/mL, ethanol 20%, PG 40%, Day 3): 24100 µg/mL
Conc of Me-Cbl ([1]; challenge 50 mg/mL, ethanol 0%, PG 0%, Day 0): 12660 µg/mL
Conc of Me-Cbl ([1]; challenge 50 mg/mL, ethanol 0%, PG 0%, Day 0 reading): 9410 µM
Conc of Me-Cbl ([1]; challenge 50 mg/mL, ethanol 0%, PG 0%, Day 1): 12860 µg/mL
Conc of Me-Cbl ([1]; challenge 50 mg/mL, ethanol 0%, PG 0%, Day 3): 12860 µg/mL
Conc of Me-Cbl ([1]; challenge 50 mg/mL, ethanol 0%, PG 20%, Day 0): 58220 µg/mL
Conc of Me-Cbl ([1]; challenge 50 mg/mL, ethanol 0%, PG 20%, Day 0 reading): 43310 µM
Conc of Me-Cbl ([1]; challenge 50 mg/mL, ethanol 0%, PG 20%, Day 1): 17990 µg/mL
Conc of Me-Cbl ([1]; challenge 50 mg/mL, ethanol 0%, PG 20%, Day 3): 17790 µg/mL
Conc of Me-Cbl ([1]; challenge 50 mg/mL, ethanol 0%, PG 40%, Day 0): 57210 µg/mL
Conc of Me-Cbl ([1]; challenge 50 mg/mL, ethanol 0%, PG 40%, Day 0 reading): 42560 µM
Conc of Me-Cbl ([1]; challenge 50 mg/mL, ethanol 0%, PG 40%, Day 1): 23210 µg/mL
Conc of Me-Cbl ([1]; challenge 50 mg/mL, ethanol 0%, PG 40%, Day 3): 22160 µg/mL
Conc of Me-Cbl ([1]; challenge 50 mg/mL, ethanol 15%, PG 0%, Day 0): 56610 µg/mL
Conc of Me-Cbl ([1]; challenge 50 mg/mL, ethanol 15%, PG 0%, Day 0 reading): 42110 µM
Conc of Me-Cbl ([1]; challenge 50 mg/mL, ethanol 15%, PG 0%, Day 1): 11930 µg/mL
Conc of Me-Cbl ([1]; challenge 50 mg/mL, ethanol 15%, PG 0%, Day 3): 11320 µg/mL
Conc of Me-Cbl ([1]; challenge 50 mg/mL, ethanol 15%, PG 20%, Day 0): 56610 µg/mL
Conc of Me-Cbl ([1]; challenge 50 mg/mL, ethanol 15%, PG 20%, Day 0 reading): 42110 µM
Conc of Me-Cbl ([1]; challenge 50 mg/mL, ethanol 15%, PG 20%, Day 1): 15490 µg/mL
Conc of Me-Cbl ([1]; challenge 50 mg/mL, ethanol 15%, PG 20%, Day 3): 15450 µg/mL
Conc of Me-Cbl ([1]; challenge 50 mg/mL, ethanol 20%, PG 0%, Day 0): 58020 µg/mL
Conc of Me-Cbl ([1]; challenge 50 mg/mL, ethanol 20%, PG 0%, Day 0 reading): 43160 µM
Conc of Me-Cbl ([1]; challenge 50 mg/mL, ethanol 20%, PG 0%, Day 3): 10350 µg/mL
Conc of Me-Cbl ([1]; challenge 50 mg/mL, ethanol 20%, PG 40%, Day 1): 51150 µg/mL
Conc of Me-Cbl ([1]; challenge 50 mg/mL, ethanol 20%, PG 40%, Day 3): 48120 µg/mL
Conc of Me-Cbl ([2]; challenge 20 mg/mL, ethanol 0%, PG 20%, Day 0): 23610 µg/mL
Conc of Me-Cbl ([2]; challenge 20 mg/mL, ethanol 0%, PG 20%, Day 0 reading): 17560 µM
Conc of Me-Cbl ([2]; challenge 20 mg/mL, ethanol 0%, PG 20%, Day 1): 24020 µg/mL
Conc of Me-Cbl ([2]; challenge 20 mg/mL, ethanol 0%, PG 40%, Day 0 reading): 17800 µM
Conc of Me-Cbl ([2]; challenge 20 mg/mL, ethanol 20%, PG 40%, Day 0): 22800 µg/mL
Conc of Me-Cbl ([2]; challenge 50 mg/mL, ethanol 20%, PG 0%, Day 1): 10470 µg/mL
Conc of Me-Cbl ([2]; challenge 50 mg/mL, ethanol 20%, PG 40%, Day 0): 57620 µg/mL
Conc of Me-Cbl ([2]; challenge 50 mg/mL, ethanol 20%, PG 40%, Day 0 reading): 42860 µM
Compound: C/C1=C2/[N-][C@H]([C@H](CC(N)=O)[C@@]2(C)CCC(=O)NC[C@H](C)OP(=O)([O-])O[C@H]2[C@@H](O)[C@@H](n3cnc4cc(C)c(C)cc43)O[C@@H]2CO)[C@]2(C)N=C(/C(C)=C3N=C(/C=C4N=C1[C@@H](CCC(N)=O)C\4(C)C)[C@@H](CCC(N)=O)[C@]\3(C)CC(N)=O)[C@@H](CCC(N)=O)[C@]2(C)CC(N)=O.[CH3-].[Co+3] [Me-Cbl, methylcobalamin]
